# Source: PubChem BioAssay (NCI)
#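 Following 48 hours of exposure in 96-well plates, responses at five concentrations were used to interpolate endpoints linearly. At the GI50, growth is halved. At the TGI there is no net growth.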
# Columns and labels:
# Experiment in all cases: NCI tumour cell line growth inhibition, 48 h
# EKVX NSCLC = tested on: EKVX NSCLC
# HOP-62 NSCLC = tested on: HOP-62 NSCLC
# M14 melanoma = tested on: M14 melanoma
# OVCAR-5 ovarian = tested on: OVCAR-5 ovarian
# OVCAR-8 ovarian = tested on: OVCAR-8 ovarian
# RPMI-8226 leukemia = tested on: RPMI-8226 leukemia
# SK-MEL-2 melanoma = tested on: SK-MEL-2 melanoma
# SN12C renal = tested on: SN12C renal
# UO-31 renal = tested on: UO-31 renal
# SR leukemia = tested on: SR leukemia
SMILES,TGI (EKVX NSCLC),TGI (HOP-62 NSCLC),TGI (M14 melanoma),TGI (OVCAR-5 ovarian),TGI (OVCAR-8 ovarian),GI50 (RPMI-8226 leukemia),TGI (RPMI-8226 leukemia),TGI (SK-MEL-2 melanoma),TGI (SN12C renal),TGI (UO-31 renal),TGI (SR leukemia),GI50 (EKVX NSCLC),GI50 (HOP-62 NSCLC),GI50 (M14 melanoma),GI50 (OVCAR-5 ovarian),GI50 (OVCAR-8 ovarian),GI50 (SK-MEL-2 melanoma),GI50 (SN12C renal),GI50 (UO-31 renal),GI50 (SR leukemia)
CC1(C)OC(=O)C=C([O-])O1.CC1(C)OC(=O)C=C([O-])O1.O=c1c(O)c(-c2ccc([O-])cc2[O-])oc2cc(O)cc(O)c12.[Ti+4],> 100 µM,> 100 µM,> 100 µM,> 100 µM,> 100 µM,59 µM,> 100 µM,67.5 µM,> 100 µM,90.5 µM,,,,,,,,,,
Oc1c2c(c(O)c3ccccc13)=N[C@@H](c1ccccc1)[C@H](c1ccccc1)N=2,,> 100 µM,> 100 µM,> 100 µM,> 100 µM,,> 100 µM,> 100 µM,> 100 µM,> 100 µM,> 100 µM,,,,,,,,,
C=C1C(=O)O[C@H]2[C@H]1CC/C(COC(=O)c1cc3cc(OC)ccc3[nH]1)=C\CC[C@@]1(C)O[C@@H]21,3.1 µM,3.29 µM,2.98 µM,3.76 µM,3.37 µM,0.509 µM,3.87 µM,3.05 µM,3.52 µM,2.37 µM,,1.5 µM,1.64 µM,1.27 µM,1.77 µM,1.58 µM,1.6 µM,1.77 µM,1.12 µM,
CNC(=O)c1ccc(-c2cnc3ncc(Cc4ccc5ncccc5c4)n3n2)cc1F,,> 100 µM,,> 100 µM,> 100 µM,> 100 µM,> 100 µM,> 100 µM,> 100 µM,> 100 µM,> 100 µM,,94.3 µM,,> 100 µM,52.4 µM,97.1 µM,> 100 µM,> 100 µM,> 100 µM
COc1cc(/C=C/C(=N\NC(=O)c2ccccc2)c2sc(Nc3ccc(Cl)c(Cl)c3)nc2C)ccc1O,> 100 µM,> 100 µM,93.4 µM,81.1 µM,> 100 µM,,,64.3 µM,> 100 µM,77.7 µM,62.3 µM,,,,,,,,,
CCCS(=O)(=O)c1nc(NC2CC2)cc(-c2ccc3c(ccn3C3CC(C)(C)NC(C)(C)C3)c2)n1,3.71 µM,3.4 µM,3.24 µM,,,2 µM,5.27 µM,3.41 µM,3.8 µM,3.16 µM,0.784 µM,1.84 µM,1.73 µM,1.74 µM,,,1.88 µM,1.88 µM,1.6 µM,0.256 µM
COc1cc(/C=C\c2ccc(O)cc2)cc(OC)c1OC,> 100 µM,> 100 µM,> 100 µM,> 100 µM,> 100 µM,,35.3 µM,> 100 µM,> 53.6 µM,> 36.6 µM,,,,,,,,,,
CCCCCC(C(O)C#N)C(O)(C(F)(F)F)C(F)(F)F (stereo not given),,> 10 µM,> 10 µM,> 10 µM,> 10 µM,,> 10 µM,,> 10 µM,,> 10 µM,,,,,,,,,
COC(=O)c1c(O)ccc2[nH]c(C)c(C#N)c12,> 100 µM,81 µM,> 100 µM,> 100 µM,> 100 µM,27.3 µM,> 100 µM,> 100 µM,> 100 µM,> 100 µM,,96.2 µM,22.7 µM,25.9 µM,> 100 µM,43.2 µM,> 100 µM,49 µM,33.9 µM,
C=CC(=O)N1CCN(c2ncnc3c(F)c(-c4c(O)cccc4F)c(Cl)cc23)CC1,28.9 µM,20.7 µM,28.9 µM,34.1 µM,67 µM,5.69 µM,36.6 µM,35 µM,31.3 µM,29 µM,,15.1 µM,0.211 µM,12.6 µM,18.4 µM,19.3 µM,15 µM,13.9 µM,14.7 µM,
CCOC(=O)/C(=C/c1ccco1)P(=O)(OCC)OCC,> 100 µM,,> 100 µM,> 100 µM,> 100 µM,,> 100 µM,> 100 µM,> 100 µM,> 100 µM,> 100 µM,,,,,,,,,
CC1=C(C)C(=O)O[C@@H]([C@](C)(O)[C@]2(O)CC[C@@]3(O)[C@@H]4C[C@H]5O[C@]56CC=CC(=O)[C@]6(C)[C@H]4CC[C@]23C)C1,,3.39 µM,1.67 µM,2.51 µM,4.86 µM,0.0593 µM,1.78 µM,0.481 µM,3.63 µM,1.46 µM,> 100 µM,,0.292 µM,0.101 µM,0.299 µM,0.231 µM,0.0761 µM,0.411 µM,0.0957 µM,0.0552 µM
N#Cc1c(N)c(C(=O)O)nn(-c2cccc(C(F)(F)F)c2)c1=O,> 100 µM,,> 100 µM,> 100 µM,> 100 µM,,> 100 µM,> 100 µM,> 100 µM,> 100 µM,> 100 µM,,,,,,,,,
NC(CCSCC(F)F)C(=O)O (stereo not given),> 100 µM,> 100 µM,> 100 µM,> 100 µM,> 100 µM,,,,> 100 µM,> 100 µM,> 100 µM,,,,,,,,,
Cc1cc(C)nc(NS(=O)(=O)c2ccc(Nc3c4ccccc4nc4c(C(=O)N5CCN(CCOS(C)(=O)=O)CC5)ccc(Cl)c34)cc2)n1,,> 100 µM,> 100 µM,> 100 µM,> 100 µM,,> 100 µM,> 100 µM,> 100 µM,> 100 µM,> 100 µM,,,,,,,,,
O=c1c2ccccc2c2c3c1cccc3c1cccc3c(=O)c4ccccc4c2c31,> 100 µM,> 100 µM,> 100 µM,> 100 µM,> 100 µM,,,> 100 µM,> 100 µM,> 100 µM,> 100 µM,,,,,,,,,
CC1(C)CCc2cc3c(cc2O1)OCCC3=O,> 100 µM,> 100 µM,> 100 µM,> 100 µM,> 100 µM,,> 100 µM,,> 100 µM,> 100 µM,> 100 µM,,,,,,,,,
C=C1CC(COc2cc(Cl)nc(N)n2)C1,,,,,,21.7 µM,60.8 µM,,,,,25.6 µM,,,66.9 µM,43.7 µM,31.4 µM,44.1 µM,35.6 µM,34.8 µM
